Results taken from patent publication US9573926B2, “Amidoalkylenyl and amidoaryl esters, compositions thereof, and methods for their use” (Allergan, Inc., priority 2014, dated 2017).

Assay: Aqueous stability of formulated compound (% remaining over time)
Assay type: physicochemical
Settings: 0.0005% w/v (5 ppm) in pH 6 buffer contain 1% PS80, n = 1

Structure (SMILES) | % Remaining (25° C., 14 days) [%] | % Remaining (25° C., 28 days) [%] | % Remaining (40° C., 14 days) [%] | % Remaining (40° C., 28 days) [%] | % Remaining (60° C., 14 days) [%] | % Remaining (60° C., 28 days) [%]
CC(=O)NCCOC(=O)c1ccc(CCC[C@@H]2[C@@H](CCc3cc(Cl)cc(Cl)c3)[C@H](O)C[C@H]2Cl)s1 [Compound 2, 2-Acetamidoethyl 5-(3-((1R,2R,3R,5R)-5-chloro-2-(3,5-dichlorophenethyl)-3-hydroxycyclopentyl)propyl)thiophene-2-carboxylate] | 99.3 | 99.6 | 99.1 | 99.5 | 98.6 | 97.0
CC(=O)NCCCOC(=O)c1ccc(CCC[C@@H]2[C@@H](CCc3cc(Cl)cc(Cl)c3)[C@H](O)C[C@H]2Cl)s1 [Compound 3, 3-Acetamidopropyl 5-(3-((1R,2R,3R,5R)-5-chloro-2-(3,5-dichlorophenethyl)-3-hydroxycyclopentyl)propyl)thiophene-2-carboxylate] | 99.2 | 103.5 | 99.8 | 100.5 | 99.4 | 98.6
